Where no end group is shown, it is not given here.
Columns and labels:
[1] = tested on: Lactobacillus crispatus DSM 20356; experiment: Antimicrobial assay (surviving colonies, CFU count); format: cell-based; conditions: peptides pre-incubated with 2 mM DTT 30 min 37 °C; 6 h with bacteria; n = 6
Description: Bacterial strains Lactobacillus crispatus DSM 20356, Lactobacillus iners CIP 105923 and Garnerella vaginalis CCUG 43336 were kindly provided by the Department of Clinical Microbiology at University Hospital Center of Liege. Lactobacillus jensenii LMG 6414 was obtained from BCCM/LMG Bacteria Collection (University of Gent, Belgium). Log-phase bacteria were grown on Columbia agar with 5% sheep blood (Becton Dickinson, Franklin Lakes, NJ, USA) at 37 °C in a humidified CO2 atmosphere (Lactobacilli) or in anaerobic jars (G. vaginalis). To analyze the antimicrobial effect of innate peptides expressed by vaginal/cervical mucosa, 5 × 10^4 colony-forming unit (CFU)/ml were mixed with different peptides (concentration range: 1–10 µg/ml) in 10 mM sodium phosphate buffer (SPB) (final volume 100 µl) and incubated for 45 min to 9 h at 37 °C. Where indicated, the peptides were incubated with 2 mM dithiothreitol (DTT) (Invitrogen, Carlsbad, CA, USA) for 30 min at 37 °C before adding the bacteria. In indicated experiments, incubation was carried out in potassium phosphate buffer (KPB) (pH: 7.4, 10 mM). The following peptides were tested: HβD1 (PeptaNova, Sandhausen, Germany), HβD2 (PeptaNova), HβD3 (PeptaNova), HβD4 (PeptaNova), HD-5 (PeptaNova), HD-6 (PeptaNova), elafin (PeptaNova), S100A7 (Abnova, Taipei City, Taiwan) and SLPI (R&D Systems, Minneapolis, MI, USA). Bacterial suspensions were then plated on Columbia Blood agar plates for 24–48 h to determine CFU. High-resolution images for each condition were taken. Colony detection and counts were finally performed using ImageJ software (NIH, Bethesda, MD, USA) and verified by manual counting.

[2] = tested on: HPV E7 oncoprotein with IKK complex or β-catenin destruction complex proteins; experiment: Gaussia princeps luciferase complementation assay (GPCA); format: binding, human papillomavirus / human; conditions: for GPCA signal, interaction with CK1a1: partner CK1a1; for GPCA signal, interaction with CK1 alpha 1: partner CK1 alpha 1, Fig 4M; for GPCA signal, interaction with CK1e: partner CK1e; for GPCA signal, interaction with CK1g1: partner CK1g1; for GPCA signal, interaction with CK1g2: partner CK1g2; for GPCA signal, interaction with CK1g3: partner CK1g3; for GPCA signal, interaction with CK1d: partner CK1d; for GPCA signal, interaction with DVL1: partner DVL1; for GPCA signal, interaction with DVL2: partner DVL2; for GPCA signal, interaction with DVL3: partner DVL3; for GPCA signal, interaction with GSK3B: partner GSK3B; for GPCA signal, interaction with NEMO: partner NEMO, Fig 3K; for GPCA signal, interaction with PPP2CA: partner PPP2CA; for GPCA signal, interaction with PPP2CB: partner PPP2CB
Description: The coding (or mutated/truncated) sequences of HPV E7 from several alpha and beta genotypes (alpha: HPV16, 18, 33, and 39; beta: HPV8, 38, and 49) were transferred into Gateway-compatible GPCA destination vector pSPICA-N2. The open reading frames (ORFs) encoding proteins involved in IKK or β-catenin destruction complex were obtained from the human ORFeome v7.1 and 8.1 (Dana-Farber Cancer Institute, Boston, MA, USA) and were transferred into pSPICA-N1 plasmid. GPCA expression vectors (pSPICA-N1 and N2) allow the expression of two complementary fragments of the G. princeps luciferase (Gluc1 or Gluc2) linked to the N-terminal ends of tested proteins. All constructions were controlled by Sanger sequencing (GIGA-Genomics platform, University of Liege). GPCA experiments were then performed as extensively described previously[90],[91]. Briefly, HEK-293T cells were simultaneously transfected with 100 ng of pSPICA-N1-IKK or β-catenin destruction complex proteins and 100 ng of pSPICA-N2-E7 using PEI Max (Polysciences, Warrington, PA, USA). After 24 h, cells were washed, lysed and luciferase enzymatic activity was measured for 10 seconds using a Centro LB960 microplate luminometer (Berthold Technologies, Bad Wildbad, Germany). The luciferase assay system was purchased from Promega. As previously described, results were expressed as a luminescence value normalized over the sum of controls [normalized luminescence ratio (NLR)].

[3] = tested on: innate peptide mRNA (SLPI, S100A7, Elafin, HBD1-4, HD-5, HD-6) in CTRL and E6E7 cells; experiment: RT-qPCR of innate peptide expression in CTRL and E6E7 keratinocytes, Control / LPS / TNF alpha (Fig 2D); format: cell-based, human;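 note: mRNA level normalized to HPRT mRNA of the same sample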
[4] = tested on: defensin/elafin mRNA in immortalized human keratinocytes (HaCaT cells); experiment: RT-qPCR of innate peptide expression in non-infected immortalized keratinocytes (TNFα/LPS, siRNA, inhibitors); format: cell-based; conditions: for Elafin expression / HBD2 expression / HBD3 expression / HBD4 expression: siGL3, TNF alpha +

## HβD3: epithelial member of the defensin family, host defense peptide (PeptaNova) (GIINTLQKYYCRVRGGRCAVLSCLPKEEQIGKCSTRGRKCCRRKK; not fully specified; ends and bridges not checked; UniProt P81534 23-67, looked up)
[1]
  antimicrobial/protective activity in reducing environment: slight increase in the antibacterial activity

## HPV16 E7
[2]; partner Beta-TRCP, Fig 4L, replicate 1
  GPCA signal, interaction with Beta-TrCP: 8.518
[2]; partner Beta-TRCP, Fig 4L, replicate 2
  GPCA signal, interaction with Beta-TrCP: 8.927
[2]; partner Beta-TRCP, Fig 4L, replicate 3
  GPCA signal, interaction with Beta-TrCP: 6.394
[2]; partner Beta-TrCP, Fig 4N, replicate 1
  GPCA signal, interaction with Beta-TrCP: 8.216
[2]; partner Beta-TrCP, Fig 4N, replicate 2
  GPCA signal, interaction with Beta-TrCP: 18.6197
[2]; partner Beta-TrCP, Fig 4N, replicate 3
  GPCA signal, interaction with Beta-TrCP: 12.6285
[2]; Fig 4L, replicate 1
  GPCA signal, interaction with CK1a1: 4.195
  GPCA signal, interaction with CK1e: 2.875
  GPCA signal, interaction with CK1g1: 13.8547
  GPCA signal, interaction with CK1g2: 8.184
  GPCA signal, interaction with CK1g3: 8.632
  GPCA signal, interaction with CK1d: 4.409
  GPCA signal, interaction with DVL1: 3.768
  GPCA signal, interaction with DVL2: 1.678
  GPCA signal, interaction with DVL3: 1.994
  GPCA signal, interaction with GSK3B: 9.854
  GPCA signal, interaction with PPP2CA: 1.175
  GPCA signal, interaction with PPP2CB: 2.065
[2]; Fig 4L, replicate 2
  GPCA signal, interaction with CK1a1: 4.4237
  GPCA signal, interaction with CK1e: 2.433
  GPCA signal, interaction with CK1g1: 9.7345
  GPCA signal, interaction with CK1g2: 7.066
  GPCA signal, interaction with CK1g3: 7.582
  GPCA signal, interaction with CK1d: 3.975
  GPCA signal, interaction with DVL1: 3.207
  GPCA signal, interaction with DVL2: 1.485
  GPCA signal, interaction with DVL3: 1.934
  GPCA signal, interaction with GSK3B: 8.937
  GPCA signal, interaction with PPP2CA: 1.457
  GPCA signal, interaction with PPP2CB: 1.7166
[2]; Fig 4L, replicate 3
  GPCA signal, interaction with CK1a1: 4.5837
  GPCA signal, interaction with CK1e: 2.765
  GPCA signal, interaction with CK1g1: 4.265
  GPCA signal, interaction with CK1g2: 7.286
  GPCA signal, interaction with CK1g3: 7.146
  GPCA signal, interaction with CK1d: 4.309
  GPCA signal, interaction with DVL1: 4.087
  GPCA signal, interaction with DVL2: 1.904
  GPCA signal, interaction with DVL3: 1.325
  GPCA signal, interaction with GSK3B: 8.081
  GPCA signal, interaction with PPP2CA: 0.9985
  GPCA signal, interaction with PPP2CB: 1.3201
[2]; replicate 1
  GPCA signal, interaction with CK1 alpha 1: 4.747
  GPCA signal, interaction with NEMO: 28.7366
[2]; replicate 2
  GPCA signal, interaction with CK1 alpha 1: 7.358
  GPCA signal, interaction with NEMO: 37.4793
[2]; replicate 3
  GPCA signal, interaction with CK1 alpha 1: 7.5013
  GPCA signal, interaction with NEMO: 29.9172

## TNFα
[3]; CTRL cells, replicate 1
  Elafin expression: 5.073
  HBD1 expression: 0.2367
  HBD2 expression: 3.658
  HBD3 expression: 3.171
  HBD4 expression: 2.287
  HD-5 expression: 0.3567
  HD-6 expression: 1.388
  S100A7 expression: 0.722
  SLPI expression: 0.646
[3]; CTRL cells, replicate 2
  Elafin expression: 4.065
  HBD1 expression: 1.168
  HBD2 expression: 4.597
  HBD3 expression: 4.307
  HBD4 expression: 2.172
  HD-5 expression: 2.274
  HD-6 expression: 2.604
  S100A7 expression: 0.3271
  SLPI expression: 2.0642
[3]; CTRL cells, replicate 3
  Elafin expression: 7.706
  HBD1 expression: 0.2415
  HBD2 expression: 6.118
  HBD3 expression: 2.998
  HBD4 expression: 5.397
  HD-5 expression: 2.494
  HD-6 expression: 1.116
  S100A7 expression: 1.785
  SLPI expression: 1.2988
[3]; CTRL cells, replicate 4
  Elafin expression: 14.6325
  HBD1 expression: 1.1843
  HBD2 expression: 11.5149
  HBD3 expression: 3.1783
  HBD4 expression: 3.11
  HD-5 expression: 8.229
  HD-6 expression: 1.904
  S100A7 expression: 0.4855
  SLPI expression: 0.7519
[3]; E6E7 cells, replicate 1
  Elafin expression: 0.006506
  HBD1 expression: 0.08614
  HBD2 expression: 2.123
  HBD3 expression: 0.6511
  HBD4 expression: 0.3771
  HD-5 expression: 0.1042
  HD-6 expression: 1.213
  S100A7 expression: 1.453e-5
  SLPI expression: 0.0293
[3]; E6E7 cells, replicate 2
  Elafin expression: 0.03758
  HBD1 expression: 0.1065
  HBD2 expression: 0.4899
  HBD3 expression: 2.311
  HBD4 expression: 0.789
  HD-5 expression: 1.126
  HD-6 expression: 0.08436
  S100A7 expression: 1.453e-5
  SLPI expression: 0.1199
[3]; E6E7 cells, replicate 3
  Elafin expression: 0.01347
  HBD1 expression: 0.06181
  HBD2 expression: 2.314
  HBD3 expression: 0.09282
  HBD4 expression: 1.611
  HD-5 expression: 0.8629
  HD-6 expression: 0.3418
  S100A7 expression: 8.731e-6
  SLPI expression: 0.005195
[3]; E6E7 cells, replicate 4
  Elafin expression: 0.01173
  HBD1 expression: 0.009073
  HBD2 expression: 0.5342
  HBD3 expression: 0.8751
  HBD4 expression: 0.9721
  HD-5 expression: 1.847
  HD-6 expression: 0.557
  S100A7 expression: 8.0162e-6
  SLPI expression: 0.029
[4]; immortalized keratinocytes, TNFα 20 ng/ml, normalized to HPRT, n = 4
  HβD2-4 expression (RT-qPCR): highly stimulated
[4]; replicate 1
  Elafin expression: 6.99
  HBD2 expression: 14.1
  HBD3 expression: 4.31
  HBD4 expression: 5.27
[4]; replicate 2
  Elafin expression: 3.11
  HBD2 expression: 7.45
  HBD3 expression: 7.5
  HBD4 expression: 1.23
[4]; replicate 3
  Elafin expression: 6.23
  HBD2 expression: 7.27
  HBD3 expression: 4.03
  HBD4 expression: 3.86

## Cc1ccc(S(=O)(=O)/C=C/C#N)cc1 [BAY 11-7082, reference compound]
[4]
  TNFα/LPS-induced defensin/elafin mRNA levels: significant decrease
